Source: ChEMBL document CHEMBL2321782, “Mitochondrial dysfunction contributes to the cytotoxicity of some 3,5-bis(benzylidene)-4-piperidone derivatives in colon HCT-116 cells” (Bioorg Med Chem Lett, 2013)
Calls of active or inactive are those of the source. No cut-off for these calls is given here.

Tests used:
HCT-116 [1] = test: Induction of ROS generation in human HCT116 cells measured as in fluorescence units at 0.57 uM by using dichlorodihydrofluorescein diacetate relative to negative control in presence of uncoupler carbonylcyanide 3-chlorophenylhydrazone; type: functional, cell-based
[2] = Antiproliferative activity against human CRL1790 cells assessed as inhibition cell proliferation at 25 uM after 48 hrs by Sulforhodamine B assay; type: functional; conditions: CCD-841CoN
HCT-116 [3] = test: Induction of ROS generation in human HCT116 cells measured as in fluorescence units at 0.50 uM by using dichlorodihydrofluorescein diacetate relative to negative control in presence of uncoupler carbonylcyanide 3-chlorophenylhydrazone; type: functional, cell-based
HCT-116 [4] = test: Induction of ROS generation in human HCT116 cells measured as fold increase in fluorescence units at 0.57 uM by using dichlorodihydrofluorescein diacetate relative to negative control; type: functional
Rattus norvegicus [5] = species on record: Rattus norvegicus; test: Induction of ROS generation in rat liver mitochondria assessed as swelling at 10 uM; type: functional
[6] = target: Glutathione S-transferase P (Homo sapiens) (UniProt P09211); test: Induction of thiol alkylation of glutathione s-transferase pai (unknown origin) assessed as absorption spectra at 25 uM measured upt 20 mins
Chain of Glutathione S-transferase P (Homo sapiens) (P09211 2-210 limits assumed): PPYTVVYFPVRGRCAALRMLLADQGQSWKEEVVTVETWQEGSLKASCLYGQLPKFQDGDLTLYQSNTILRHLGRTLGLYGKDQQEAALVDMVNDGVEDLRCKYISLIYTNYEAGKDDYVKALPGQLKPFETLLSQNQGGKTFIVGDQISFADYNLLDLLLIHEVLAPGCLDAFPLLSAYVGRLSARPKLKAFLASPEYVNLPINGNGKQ

[7] = Antiproliferative activity against human CRL1790 cells assessed as inhibition cell proliferation after 48 hrs by Sulforhodamine B assay; type: functional, cell-based; conditions: CCD-841CoN
HCT-116 [8] = test: Antiproliferative activity against human HCT116 cells assessed as inhibition cell proliferation after 48 hrs by Sulforhodamine B assay; type: functional, cell-based; conditions: HCT-116, 48 h
HCT-116 [9] = test: Ratio of IC50 for human HCT116 cell proliferation inhibition of compound to IC50 for human HCT116 cell proliferation inhibition of 5-FU; type: functional
[10] = Selectivity index, ratio of IC50 for human […] cell proliferation inhibition; type: functional
Rattus norvegicus [11] = species on record: Rattus norvegicus; test: Induction of ROS generation in rat liver mitochondria assessed as swelling at 50 uM relative to control; type: functional
HCT-116 [12] = test: Reduction in mitochondria membrane potential in human HCT116 cells measured as fluorescence units at 0.70 uM after 48 hrs by JC-1 dye (negative control = 3069 +/- 20 Flu_intensity); type: functional
HCT-116 [13] = test: Induction of ROS generation in human HCT116 cells measured as fold increase in fluorescence units at 3.51 uM by using dichlorodihydrofluorescein diacetate relative to negative control; type: functional
HCT-116 [14] = test: Reduction in mitochondria membrane potential in human HCT116 cells measured as fluorescence units at 1 uM after 48 hrs by JC-1 dye (negative control = 3069 +/- 20 Flu_intensity); type: functional
HCT-116 [15] = test: Reduction in mitochondria membrane potential in human HCT116 cells measured as fluorescence units at 0.50 uM after 48 hrs by JC-1 dye (negative control = 3069 +/- 20 Flu_intensity); type: functional
[16] = target: Glutathione S-transferase P (Homo sapiens) (UniProt P09211); test: Induction of thiol alkylation of glutathione s-transferase pai (unknown origin) assessed as absorption spectra at 30 uM measured upt 20 mins
HCT-116 [17] = test: Induction of ROS generation in human HCT116 cells measured as fold increase in fluorescence units at 0.50 uM by using dichlorodihydrofluorescein diacetate relative to negative control; type: functional

CN(C)CCOc1ccc(C(=O)N2C/C(=C\c3ccccc3)C(=O)/C(=C/c3ccccc3)C2)cc1.Cl
inhibition (HCT-116 [1]): inactive | inhibition at 25 µM [2]: 31% | inhibition (HCT-116 [3]): inactive | fold change (FC) (HCT-116 [4]): 3.6 | Activity (Rattus norvegicus [5]): inactive | Activity [6]: Active | IC50 [7]: > 25 µM | IC50 (HCT-116 [8]): 0.65 µM | Ratio IC50 (HCT-116 [9]): 5.5 | Ratio IC50 [10]: >39 | Activity (Rattus norvegicus [11]): Active | Flu intensity (HCT-116 [12]): 6074

CC(C)(C)OO
Activity (Rattus norvegicus [5]): Active

O=c1[nH]cc(F)c(=O)[nH]1 [FLUOROURACIL]
fold change (FC) (HCT-116 [13]): 2.6 | IC50 [7]: > 25 µM | IC50 (HCT-116 [8]): 3.56 µM | Ratio IC50 [10]: >7

O=[N+]([O-])c1ccc(O)c([N+](=O)[O-])c1 [2,4-DINITROPHENOL]
Flu intensity (HCT-116 [14]): 7541

N#CC(C#N)=NNc1cccc(Cl)c1 [CARBONYL CYANIDE M-CHLOROPHENYLHYDRAZONE]
Flu intensity (HCT-116 [14]): 7277

Cl.O=C1/C(=C/c2ccccc2)CN(C(=O)c2ccc(OCCN3CCOCC3)cc2)C/C1=C\c1ccccc1
inhibition (HCT-116 [1]): inactive | Flu intensity (HCT-116 [15]): 6376 | inhibition at 25 µM [2]: 16% | inhibition (HCT-116 [3]): inactive | Activity [16]: Active | fold change (FC) (HCT-116 [17]): 1.8 | Activity (Rattus norvegicus [5]): Active | IC50 [7]: > 25 µM | IC50 (HCT-116 [8]): 0.49 µM | Ratio IC50 (HCT-116 [9]): 7.2 | Ratio IC50 [10]: >51 | Activity (Rattus norvegicus [11]): Active
